According to patent US6432924B1, “Method of treating disorders characterized by overexpression of cytidine deaminase or deoxycytidine deaminase” (East Carolina University, priority 1993, dated 2002):

Legend:
HT-29SF^CD cells = experiment: Transwell culture, 5mAZC exposure of cytidine deaminase overexpressing cells; format: cell-based, human; settings: for Number of viable cells HT-29SF^CD: quintuplicate, Transwell
Protocol: (§1) HT-29SF^CD cells are a subline of HT-29SF human colonic adenocarcinoma cells that were selected for overexpression of cytidine deaminase. HT-29SF cells were plated in the bottom compartment, and HT-29SF^CD cells in the top compartment of a “Transwell” culture dish (1,000 cells each). A semipermeable membrane separates the two compartments of the Transwell, such that any drug administered in the tissue culture media bathe both compartments equally. 5-mAZC was administered continuously for 72 hrs. at the indicated concentrations. The numbers in the x-axis indicate the concentration (in μM) at which 5mAZC was administered continuously for 72 hours. The numbers on the y-axis indicate the number of surviving cells. The circular (●) data points represent the dose response for the HT-29SF^CD cells. The square (▪) data points represent the dose response for the HT-29SF cells.
HT-29SF human adenocarcinoma cells naturally express a high level of cytidine deaminase (CD). HT-29SF^CD is a subline of the HT-29SF line that express even higher CD levels than normal (about 5.4 times the expression level of HT-29SF cells). In order to see whether cells that overexpress cytidine deaminase are more sensitive to 5mAZC than other cells, HT-29SF^CD cells were plated in the top compartment of a Transwell culture dish, while HT-29SF cells were placed in the bottom compartment (1000 cells each). A semipermeable membrane separated the two compartments of the Transwell, such that drugs administered in the tissue culture media bathe both compartments equally. 5mAZC was administered continuously for 72 hrs at concentrations ranging from 0 μM to 50 μM. The results of this experiment confirm the idea that cells that highly overexpress CD are sensitive to 5mAZC.
Based upon the results obtained in example 1 above, a dose of 50 μM 5mAZC was selected for more in-depth analysis. Two experiments were performed, in quintuplicate, in the same Transwell dishes, containing the HT-29SF cells and the HT-29SF^CD cells in compartments separated only by a membrane permeable to 5mAZC.

HT-29SF cells [1] = experiment: Transwell culture, 5mAZC exposure of parent cells; format: cell-based, human; settings: quintuplicate
Protocol: as §1
HT-29SF human adenocarcinoma cells naturally express a high level of cytidine deaminase (CD). HT-29SF^CD is a subline of the HT-29SF line that express even higher CD levels than normal (about 5.4 times the expression level of HT-29SF cells). In order to see whether cells that overexpress cytidine deaminase are more sensitive to 5mAZC than other cells, HT-29SF^CD cells were plated in the top compartment of a Transwell culture dish, while HT-29SF cells were placed in the bottom compartment (1000 cells each). […]

[2] = tested on: HT-29SF^CD (cytidine deaminase producing)cells; experiment: Human tumor xenograft model, HT-29SF^CD tumor (right scapular region); format: in vivo, Balb/C nu/nu mice; settings: 150 mg/kg twice daily intraperitoneal, 5 weeks, N=2
Protocol: (§2) One of these mice received twice daily intraperitoneal doses of 150 mg/kg of 5mAZC. The other mouse received saline only. This treatment continued for 5 weeks, at which time the animals were euthanized and the solid tumors were dissected free and weighed.

[3] = tested on: HT-29SF (non cytidine deaminase producing)cells; experiment: Human tumor xenograft model, HT-29SF tumor (left scapular region); format: in vivo, Balb/C nu/nu mice; settings: 150 mg/kg twice daily intraperitoneal, 5 weeks, N=2
Protocol: as §2

HT-29SF cells [4] = experiment: HT-29SF subcutaneous xenograft, tumor volume on Day 29; format: in vivo, BALB/c nude mice
Protocol: In another experiment, thirty BALB/c nude mice received subcutaneous injections of 5×10^6 HT-29SF cells. Twelve of the animals received 600 mg/kg/day 5mAZC in the flank for 28 days. Eighteen animals received saline injections on the same schedule. On Day 29, the animals were sacrificed and the tumor volume was quantified by standard methods. The average tumor volume for the control group receiving saline was 509±292 mm . […] The results of Examples 2 and 3 show clearly that 5mAZC is activated in vitro and in vivo into molecular species exclusively toxic to tumor cells that overexpress cytidine deaminase.

[5] = Experiment 1, 50 μM 5mAZC, 1000 cells plated

Cc1cn([C@H]2C[C@H](N=[N+]=[N-])[C@@H](CO)O2)c(=O)nc1N [5mAZC, 5-methyl-2′,3′-dideoxy-3′-azidocytidine]
Number of viable cells HT-29SF^CD (HT-29SF^CD cells; [5]): 33.8 ± 17.1 | sensitivity of cells that highly overexpress CD to 5mAZC (number of surviving cells, FIG. 1) (HT-29SF^CD cells; HT-29SF^CD cells, 0 μM to 50 μM continuously for 72 hrs): sensitive | Number of viable cells HT-29SF^CD (HT-29SF^CD cells; second experiment (head prints Example 2), 50 μM 5mAZC): 45.4 ± 15.6 | Number of viable cells HT-29SF (HT-29SF cells [1]; [5]): 797 ± 68 | Number of viable cells HT-29SF (HT-29SF cells [1]; second experiment, 50 μM 5mAZC): 867.2 ± 29.4 | tumor weight HT-29SF^CD+5mAZC [2]: 0.22 g | tumor weight HT-29SF+5mAZC [3]: 1.02 ± 0.13 g | average reduction in size (tumor volume vs saline control) (HT-29SF cells [4]; 600 mg/kg/day for 28 days): 46% | average tumor volume (HT-29SF cells [4]; 600 mg/kg/day in the flank for 28 days, saline control 509±292): 273±97 mm^3
